Data taken from patent US8828435B2, “Buccal delivery system” (Lingual Consegna Pty Ltd, priority 2006, dated 2014).
Where two headings read alike, the source gives them in different places.

Columns and labels:
[1] = Open-label clinical trial: plasma hormone pharmacokinetics after buccal LINGUET tablet, single dose and two weeks twice daily; type: in vivo, post-menopausal women; details: for absorption from the LINGUET tablet: achieved concentrations found in normal young menstruating women
Method: The trial was conducted with approval of an ethics committee within the hospital.
The excipients in the LINGUET tablets consisted of silica gel, magnesium stearate, acacia, stevia and polyethylene glycol with a wildberry flavour. The LINGUET tablets employed in this trial were formulated in a single batch for the study using the process according to the invention as described in example 2 above. The LINGUET tablets were provided by Richard Stenlake Compounding Pharmacist (Bondi Junction, Australia).
The study was an open-label investigation in six post-menopausal women. Before entry into the trial, subjects gave informed consent, and underwent medical and biochemical screening. Subjects were in general good health, and at least one year post-menopausal.
Subjects discontinued their prescribed HRT therapy as well as any herbal or alternative medicines not less than three days prior to the first study day. Subjects presented to the Clinical Trials Centre on the morning of each study day after an overnight fast. An indwelling cannula was inserted into a forearm vein and a baseline blood specimen collected.
On the first day, a half-LINGUET tablet was placed in the buccal cavity (between the cheek and the gum) and allowed to dissolve. Subjects were instructed not to swallow the formulation. […] Subjects rinsed their mouths with water at 45 min. Blood samples were collected via the cannula at timed intervals over 24 h. Subjects were discharged, but continued to take half a LINGUET tablet, twice daily, for the following two weeks. Subjects then re-presented to the Clinical Trials Centre where the morning dose was taken and further blood samples were collected at timed intervals over the dosage interval of 12 h.
Blood samples were schedule for collection following the single dose at the following times:
Pre-dose (0), 0.25, 0.5, 0.75, 1.0, 1.5, 2.0, 3.0, 4.0, 6.0, 8.0, 12.0, 16.0, […] and 24.0 h following the single dose, and at pre-dose (0), 0.25. 0.5, 0.75, 1.0, 2.0, 2.5, 3.0, 4.0, 6.0, 8.0, 10.0 and 12 h after the two-week dosing interval (steady-state). Actual times were recorded, and these were used for the pharmacokinetic calculations.
Plasma concentrations of hormones were determined using routine validated, radioimmunoassay techniques in the hospital laboratory (Sydpath, St Vincent's Hospital, Sydney). The laboratory is an accredited pathology provider that participates in national quality assurance programmes for hormonal analysis.
DHEA was monitored as the sulphate metabolite (DHEAS), not as the administered hormone.

[2] = Hormone concentrations in saliva after buccal LINGUET tablet (radioimmunoassay); type: in vivo, post-menopausal women; details: elevation maintained over the following 8-12 hours
Method: Saliva was collected according to the standardized directions provided by the laboratory, Australian Reference Laboratories (Melbourne), and stored frozen (−20° C.) prior to shipping for hormonal analysis. In brief, subjects rinsed their mouths thoroughly with water and waited 5-10 min before swallowing any saliva in the mouth. Subjects then expressed saliva directly into the collection tubes.
Saliva samples were obtained for single dose estimation at the following times: pre-dose (0), and 1.0, 4.0, 8.0, 12.0, 16.0 and 24 h after dosing. For steady-state analysis, saliva was collected at pre-dose (0), and 1.0, 4.0, 8.0 and 12.0 h after LINGUET tablet administration.
Hormone concentrations in saliva were conducted by the […] (Melbourne) using validated, commercial radioimmunoassays. This laboratory is similarly an accredited pathology provider.

[3] = background statement, cited from earlier work; for absorbed fraction of the ingested dose: oral
[4] = plasma, single and multiple dosing

Which results are given for `C[C@]12CC[C@H]3[C@@H](CCC4=CC(=O)CC[C@@]43C)[C@@H]1CC[C@@H]2O` [Testosterone, testosterone]?
Cmax ([1]; female, human, in vivo, plasma, after the first dose (half LINGUET tablet, buccal), read-out: Cmax Day 1): 31.6 ± 10.9 nM; Tmax ([1]; female, human, in vivo, plasma, after the first dose (half LINGUET tablet, buccal), read-out: Tmax Day 1): 0.6 h; concentration at 2 weeks ([1]; female, human, in vivo, plasma, after two weeks of twice daily half-tablet, six women, mean ± spread, read-out: Trough concentration at steady-state): 0.67 ± 0.28 nM; duration of markedly increased plasma concentrations [1, 4]: up to 4 hours; return to pre-treatment values [1, 4]: ≤ 8 h; time of peak concentrations (mean) [1, 4]: 0.6 h; absorption from the LINGUET tablet ([1]; plasma): readily absorbed

What does the source list for `C[C@]12CC[C@H](OS(=O)(=O)O)CC1=CC[C@@H]1[C@@H]2CC[C@]2(C)C(=O)CC[C@@H]12` [DHEA-sulphate, dehydroepiandrosterone-sulphate]?
Tmax Day 1 ([1]; plasma, after the first dose (half LINGUET tablet, buccal)): 6.0 h; Cmax ([1]; plasma, after the first dose (half LINGUET tablet, buccal), read-out: Cmax Day 1): 2.2 ± 1.1 nM; Trough concentration at steady-state ([1]; plasma, after two weeks of twice daily half-tablet, six women, mean ± spread): 2.56 ± 1.99 nmol/L; Tmax Steady-state ([1]; plasma, after two weeks of twice daily treatment): 1.5 h; Cmax ([1]; plasma, after two weeks of twice daily treatment, read-out: Cmax Steady-state): 4 ± 2 nM

With `C[C@]12CC[C@@H]3c4ccc(O)cc4CC[C@H]3[C@@H]1CC[C@@H]2O` [Oestradiol, 17-β-oestradiol] as the compound, how does the “concentrations in saliva compared with blood following use of the LINGUET tablet” value [2] read?
The value was “elevated many times higher than in blood”.

With `CC(=O)[C@H]1CC[C@H]2[C@@H]3CCC4=CC(=O)CC[C@]4(C)[C@H]3CC[C@]12C` [Progesterone, progesterone] as the compound, how does the “concentrations in saliva compared with blood following use of the LINGUET tablet” value [2] read?
The value was “elevated many times higher than in blood”.

What about the Cmax ([1]; female, human, in vivo, Cmax Day 1) of the same compound?
Its Cmax is 22.9 ± 6.9 nM.

What about the Cmax ([1]; female, human, in vivo, Cmax Steady-state) of the same compound?
The Cmax was 26.1 ± 7.6 nM.

What about the Tmax ([1]; female, human, in vivo, Tmax Day 1) of the same compound?
The Tmax was 1.5 h.

What about the Tmax ([1]; female, human, in vivo, Tmax Steady-state) of the same compound?
Its Tmax is 1 h.

And the “plasma concentration at steady-state versus physiological level” value ([1]; in vivo)?
The value was “sustained at concentrations usually associated with physiological and biological activity in young normal women”.

What about the “time until concentrations decreased to below those generally associated with biological activity in the endometrium” value ([1]; in vivo) of the same compound?
Its value is “within five hours”.

With `NCCCC(O)(P(=O)(O)O)P(=O)(O)O` [alendronate] as the compound, how does the “absorbed fraction of the ingested dose” value [3] read?
The value was “about 1%”.

With `C[C@]12CC[C@H](O)CC1=CC[C@@H]1[C@@H]2CC[C@]2(C)C(=O)CC[C@@H]12` [DHEA, dehydroepiandrosterone] as the compound, how does the oral bioavailability [3] read?
The oral bioavailability was “over 90%”.

And the “absorption from the LINGUET tablet” value ([1]; plasma)?
Its value is “readily absorbed”.

And the “change of blood concentrations of DHEAS” value ([1]; single dose one-half LINGUET tablet (5 mg DHEA), over 5-10 hours)?
Its value is “doubling”.

For `O=P(O)(O)C(O)(Cc1cccnc1)P(=O)(O)O` [risedronate], which “absorbed fraction of the ingested dose” value [3] is on record?
Its value is “about 1%”.
